Reference: US20100266618A1, “COMPOSITIONS AND METHODS FOR AUGMENTING ACTIVITY OF ONCOLYTIC VIRUSES” (priority 2009, published 2010)

What was measured:
[1] = tested on: EMT6 breast cancer line; test: In vitro cytotoxicity assay with small molecule followed by Maraba virus infection; conditions: 50 uM for 48 h prior to Maraba virus infection
Experimental: In vitro cytotoxicity assays with small molecules: Cells were seeded onto 96 well plates to a confluence of ˜50%. The following day, siRNA transfections were performed, or small-molecule IRE1α inhibition was initiated. For the small-molecules, DMSO was used as a vehicle with a [drug]=20-50 μM. Drug treatment occurred for either 4 h (“acute” treatment), or was re-applied at 24 h and left for 48 h total (“chronic” treatment). Following knockdown or chemical inhibition, the cells were infected at log dilutions with the indicated rhabdoviruses. After 48-72 h of infection (depending on the cell line), Resazurin sodium salt was added to a final concentration of 20 μg/ml. After a 6 h incubation the absorbance was read at a wavelength of 573 nm.

[2] = Maximum tolerable dose (MTD) study; type: in vivo; conditions: single IP injection, CD-1 nude mice
Experimental: (§1) Maximum tolerable dose (MTD) and pharmacokinetic (PK) studies in mice: For MTD studies, groups of three CD-1 nude mice (6-8 weeks old) were given a single intraperitoneal (IP) injection of Compound 2 (in log 2 increments, diluted in 10% Tween-80) ranging from […]-1000 mg/Kg. The animals were monitored twice daily for signs of distress, including weight loss, morbidity, and respiratory distress. For PK studies, groups of three CD-1 nude mice (6-8 weeks old) were given a single IP injection of Compound 2 (250 mg/Kg), and blood was taken from the saphenous vein at the indicated timepoints. The blood was centrifuged at 3,000 rpm for 10 min, and plasma collected and frozen (−80 deg C.). Plasma samples were analyzed for Compound 2 using LC-MS. To 10 μL plasma, 20 μL acetonitrile was added, vortexed briefly and centrifuged at 14,000 rpm for 10 min. The clear supernatant was transferred in to a vial for LC-MS analysis. Chromatographic separations were carried out on an Acquity UPLC BEH C18 (2.1×50 mm, […]) column using ACQUITY UPLC system. The mobile phase was 0.1% formic acid in water (solvent A) and 0.1% formic acid in acetonitrile (solvent B). A gradient starting at 95% solvent A going to 5% in 4.5 min, holding for 0.5 min, going back to 95% in 0.5 min and equilibrating the column for 1 min was employed. […]

[3] = tested on: EMT6 tumours; test: EMT6 syngeneic breast cancer model, bioluminescent imaging and survival; type: in vivo, Balb/c mice
Experimental: EMT6 syngeneic breast cancer models: Murine EMT6 breast cancer-derived cells (1×10^5 per mouse) were adapted for bioluminescent imaging and injected into the fat pad of the right lower breast in 6-8 week old Balb/c mice. Mice developed palpable tumours by 5-7 days, which grew rapidly. At 7 days post-tumour implants, mice were treated with Compound 2 (250 mg/kg, IP) or vehicle, twice daily, for six days. Maraba-DM (1×10^7 pfu per cell) or PBS was injected IV (tail vein) on day 10, 11, 13, 16, and 17. Animals were monitored daily for piloerection, weight loss, morbidity, hind leg paralysis and respiratory distress. Tumour images were captured twice weekly using a Xenogen 200 IVIS system (Caliper LS, USA), and total luminescent flux was analyzed on computerized software (Xenogen). Mice were euthanized when the total flux exceeded 1×10^7, which corresponded to a tumour burden of ˜500 mm^3 and occurred between 14-17 days in untreated animals.

[4] = tested on: OVCAR-4 xenograft; test: Ovarian xenograft model, bioluminescent imaging; type: in vivo, CD-1 nude mice
Experimental: Ovarian xenograft model: Human ovarian carcinoma-derived OVCAR-4 cells, adapted for bioluminescent imaging, were injected into 6-8 week old athymic CD-1 nude mice (IP injection, 5×10^6 cells per mouse). Untreated animals develop measurable abdominal tumours (assessed by IVIS imaging) by 4-7 days, become icteric by 3-4 months and must be euthanized shortly thereafter due to systemic disease as characterized by enlarged cancerous liver and spleen, pale kidneys, and cancerous lymph nodes on the abdominal mesentery. For efficacy experiments, Compound 2 (250 mg/kg; or vehicle (10% Tween-80)) was administered twice daily (IP injections), beginning on day 14 and ending on day 19. Maraba-DM (1×10^5 pfu per cell) or PBS was injected IV (tail vein) on day 16, 17, 19, 23, 25, 27. Animals were monitored daily for weight loss, morbidity, hind leg paralysis and respiratory distress. Tumour images were captured twice weekly with a Xenogen 200 IVIS system (Caliper LS, USA), and total luminescent flux was analyzed on computerized software (Xenogen).

[5] = Pharmacokinetic (PK) study, plasma LC-MS; type: in vivo; conditions: CD-1 nude mice
Experimental: as §1

[6] = tested on: U373 and OVCAR8 cells; type: cell-based, human

COc1cc(-c2cccc(C(N)=O)c2)cc(C=O)c1O [Compound 2, 3′-formyl-4′-hydroxy-5′-methoxy-[1,1′-biphenyl]-3-carboxamide]
sensitization to oncolytic virus killing [1]: significantly sensitized to oncolytic virus killing
tolerated single dose [2]: up to 1000 mg/Kg
tumour burden ([3]; combination with Maraba virus, 250 mg/Kg IP twice daily for 6 days): significantly reduced tumour burden
tumour growth after drug treatment was stopped ([3]; combination, virus dosing continued): tumour re-growth occurred even in the presence of continued virus dosing
tumour growth ([3]; single agent): neither drug nor virus had an appreciable effect on tumour growth
efficacy (survival) with extended treatment ([3]; treatment extended to more than 12 days in combination with virus): continued to increase efficacy
duration of reduced tumour burden ([4]; combination with Maraba-DM): > 30 days
tumour burden ([4]; combination with Maraba-DM, Compound 2 250 mg/kg IP twice daily): dramatically reduced tumour burden
tumour growth ([4]; single agent): rapid re-growth occurred after an early period of tumour regression
bio-distribution [5]: efficient bio-distribution to the extravascular tissues
half-life ([5]; mouse, plasma, intraperitoneal, 250 mg/Kg): > 6 h

tunicamycin [reference compound]
eIF2alpha phosphorylation [6]: inducing elF2alpha phosphorylation
